Source: patent publication US7384965B2, “Fused heterocyclic derivatives as PPAR modulators” (Eli Lilly and Company, priority 2003, dated 2008)

Row | SMILES | melting point
1 | CCC(Sc1ccc(CCC(=O)O)c(C)c1)c1ccc2nc(-c3ccc(C(F)(F)F)cc3)sc2c1 (racemic) [Example 64, (+/−)-3-(2-Methyl-4-{1-[2-(4-trifluoromethylphenyl)benzothiazol-6-yl]propylsulfanyl}phenyl)propionic Acid] | 105 to 108 °C
2 | Cc1cc(SCc2ccc3nc(-c4ccc(C(F)(F)F)cc4)sc3c2)ccc1OCC(=O)O [Example 57, 2-Methyl-4-[2-(4-trifluoromethylphenyl)benzothiazol-6-ylmethylsulfanyl]phenoxyacetic Acid] | 176 to 177 °C
3 | Cc1cc(SCCc2cccc3sc(-c4ccc(C(F)(F)F)cc4)nc23)ccc1OCC(=O)O [Example 48, 2-Methyl-4-{2-[2-(4-trifluoromethylphenyl)benzothiazol-4-yl]ethylsulfanyl}phenoxyacetic Acid] | 97 to 100 °C
4 | CCc1cc(SCc2ccc3nc(-c4ccc(C(F)(F)F)cc4)sc3c2)ccc1OCC(=O)O [Example 59, 2-Ethyl-4-[2-(4-trifluoromethylphenyl)benzothiazol-6-ylmethylsulfanyl]phenoxyacetic Acid] | 144 to 147 °C
5 | Cc1cc(SCCc2ccc3sc(-c4ccc(C(F)(F)F)cc4)nc3c2)ccc1CCC(=O)O [Example 56, 3-(2-Methyl-4-{2-[2-(4-trifluoromethylphenyl)benzothiazol-5-yl]ethylsulfanyl}phenyl)propionic Acid] | 108 to 110 °C
6 | O=C(O)Cc1csc2cc(OCc3cccc4nc(-c5ccc(C(F)(F)F)cc5)oc34)ccc12 [Example 70, 6-[2-(4-Trifluoromethylphenyl)benzooxazol-7-ylmethoxy]benzo[b]thiophen-3-ylacetic Acid] | 215 to 216 °C
7 | CCc1cc(SCc2cccc3nc(-c4ccc(C(F)(F)F)cc4)oc23)ccc1OCC(=O)O [Example 72, 2-Ethyl-4-[2-(4-trifluoromethylphenyl)benzooxazol-7-ylmethylsulfanyl]phenoxyacetic Acid] | 170 to 173 °C
8 | O=C(O)Cc1cccc(SCc2cccc3nc(-c4ccc(C(F)(F)F)cc4)oc23)c1 [Example 73, 3-[2-(4-Trifluoromethylphenyl)benzooxazol-7-ylmethylsulfanyl]phenylacetic Acid] | 147 to 149 °C
9 | Cc1cc(SCc2ccc3nc(-c4ccc(C(F)(F)F)cc4)sc3c2)ccc1CCC(=O)O [Example 58, 3-{2-Methyl-4-[2-(4-trifluoromethylphenyl)benzothiazol-6-ylmethylsulfanyl]phenyl}propionic Acid] | 194 to 196 °C
10 | Cc1cc(SCc2cccc3nc(-c4ccc(C(F)(F)F)cc4)sc23)ccc1OCC(=O)O [Example 44, 2-Methyl-4-[2-(4-trifluoromethylphenyl)benzothiazol-7-ylmethylsulfanyl]phenoxyacetic Acid] | 193 to 196 °C
11 | CCc1cc(SCc2cccc3sc(-c4ccc(C(F)(F)F)cc4)nc23)ccc1OCC(=O)O [Example 40] | 89 to 92 °C
12 | O=C(O)Cc1csc2cc(OCc3cccc4sc(-c5ccc(C(F)(F)F)cc5)nc34)ccc12 [Example 42, 6-[2-(4-Trifluoromethylphenyl)benzothiazol-4-ylmethoxy]benzo[b]thiophen-3-ylacetic Acid] | 185 to 190 °C
13 | Cc1cc(OCc2ccc3nc(-c4ccc(C(F)(F)F)cc4)sc3c2)ccc1CCC(=O)O [Example 60, 3-{2-Methyl-4-[2-(4-trifluoromethylphenyl)benzothiazol-6-ylmethoxy]phenyl}propionic Acid] | 198 to 200 °C
14 | Cc1cc(SCc2cccc3oc(-c4ccc(C(F)(F)F)cc4)nc23)ccc1CCC(=O)O [Example 66, 3-2-Methyl-4-[2-(4-trifluoromethylphenyl)benzooxazol-4-ylmethylsulfanyl]phenylpropionic Acid] | 181 to 183 °C
15 | Cc1cc(SCc2cccc3oc(-c4ccc(C(F)(F)F)cc4)nc23)ccc1OCC(=O)O [Example 65, 2-Methyl-4-[2-(4-trifluoromethylphenyl)benzooxazol-4-ylmethylsulfanyl]-phenoxyacetic Acid] | 160 to 162 °C (dec.)
16 | O=C(O)Cc1cccc(SCc2cccc3sc(-c4ccc(C(F)(F)F)cc4)nc23)c1 [Example 41] | 140 to 143 °C

Second part, the compound after the results:

Row | melting point | SMILES
17 | 89 to 91 °C | Cc1cc(SCc2ccnc3c2nc(-c2ccc(C(F)(F)F)cc2)n3C)ccc1CCC(=O)O [Example 108, 3-{2-Methyl-4-[3-methyl-2-(4-trifluoromethylphenyl)-3H-imidazo[4,5-b]pyridin-7-ylmethylsulfanyl]phenyl}propionic Acid]
18 | 131 to 133 °C | Cc1cc(SC(C)(C)c2cccc3nc(-c4ccc(C(F)(F)F)cc4)oc23)ccc1OCC(=O)O [Example 75, 2-Methyl-4-{1-methyl-1-[2-(4-trifluoromethylphenyl)benzooxazol-7-yl]ethylsulfanyl}phenoxyacetic Acid]
19 | 178 to 180 °C | Cn1c(-c2ccc(C(F)(F)F)cc2)nc2c(CSc3cccc(CC(=O)O)c3)cccc21 [Example 92, 3-[1-Methyl-2-(4-trifluoromethylphenyl)-1H-benzoimidazol-4-ylmethylsulfanyl]phenylacetic Acid]
20 | > 260 °C (dec.) | Cc1cc(SCc2ccnc3oc(-c4ccc(C(F)(F)F)cc4)nc23)ccc1CCC(=O)O [Example 96, 3-{2-Methyl-4-[2-(4-trifluoromethylphenyl)oxazolo[5,4-b]pyridin-7-ylmethylsulfanyl]phenyl}propionic Acid]
21 | 176 to 178 °C | CCc1cc(SCc2ccnc3sc(-c4ccc(C(F)(F)F)cc4)nc23)ccc1OCC(=O)O [Example 102, 2-Ethyl-4-[2-(4-trifluoromethylphenyl)thiazolo[5,4-b]pyridin-7-ylmethylsulfanyl]phenoxyacetic Acid]
22 | 180 to 183 °C | O=C(O)Cc1cccc(SCc2cccc3[nH]c(-c4ccc(C(F)(F)F)cc4)nc23)c1 [Example 88, 3-[2-(4-Trifluoromethylphenyl)-1H-benzoimidazol-4-ylmethylsulfanyl]phenylacetic Acid]
23 | 118 to 120 °C | CCc1cc(SCc2ccnc3c2nc(-c2ccc(C(F)(F)F)cc2)n3C)ccc1OCC(=O)O [Example 109, 2-Ethyl-4-[3-methyl-2-(4-trifluoromethylphenyl)-3H-imidazo[4,5-b]pyridin-7-ylmethylsulfanyl]phenoxyacetic Acid]
24 | 239 to 241 °C | Cc1cc(SCc2ccnc3[nH]c(-c4ccc(C(F)(F)F)cc4)nc23)ccc1OCC(=O)O [Example 103, 2-Methyl-4-[2-(4-trifluoromethylphenyl)-3H-imidazo[4,5-b]pyridin-7-ylmethylsulfanyl]phenoxyacetic Acid]
25 | 178 to 180 °C | CCc1cc(SCc2cccc3c2nc(-c2ccc(C(F)(F)F)cc2)n3C)ccc1OCC(=O)O [Example 91, 2-Ethyl-4-[1-methyl-2-(4-trifluoromethylphenyl)-1H-benzoimidazol-4-ylmethylsulfanyl]phenoxyacetic Acid]
26 | 195 to 198 °C | CC(Sc1ccc2c(CC(=O)O)csc2c1)c1cccc2nc(-c3ccc(C(F)(F)F)cc3)oc12 (racemic) [Example 82, (+/−)-6-{1-[2-(4-Trifluoromethylphenyl)benzooxazol-7-yl]ethylsulfanyl}benzo[b]thiophen-3-ylacetic Acid]
27 | 85 to 88 °C | Cc1cc(SCc2cccc3[nH]c(-c4ccc(C(F)(F)F)cc4)cc23)ccc1OCC(=O)O [Example 93, 2-Methyl-4-[2-(4-trifluoromethylphenyl)-1H-indol-4-ylmethylsulfanyl]phenoxyacetic Acid]
28 | 82 to 85 °C | Cc1cc(SCc2ccnc3sc(-c4ccc(C(F)(F)F)cc4)nc23)ccc1OCC(=O)O [Example 100, 2-Methyl-4-[2-(4-trifluoromethylphenyl)thiazolo[5,4-b]pyridine-7-ylmethylsulfanyl]phenoxyacetic Acid]
29 | 172 to 174 °C | Cc1cc(SCc2cccc3nc(-c4ccc(C(F)(F)F)cc4)oc23)ccc1OCC(=O)O [Example 74, 2-Methyl-4-[2-(4-trifluoromethylphenyl)benzooxazol-7-ylmethylsulfanyl]phenoxyacetic Acid]
30 | 128 to 130 °C | Cc1cc(SC(C)c2cccc3nc(-c4ccc(C(F)(F)F)cc4)oc23)ccc1CCC(=O)O (racemic) [Example 80, (+/−)-3-(2-Methyl-4-{1-[2-(4-trifluoromethylphenyl)benzooxazol-7-yl]ethylsulfanyl}phenyl)propionic Acid]
31 | 238 to 240 °C (dec.) | Cc1cc(SCc2cccc3[nH]c(-c4ccc(C(F)(F)F)cc4)nc23)ccc1OCC(=O)O [Example 85, 2-Methyl-4-[2-(4-trifluoromethylphenyl)-1H-benzoimidazol-4-ylmethylsulfanyl]phenoxyacetic Acid]
32 | 174 to 176 °C | CCc1cc(SCc2cccc3[nH]c(-c4ccc(C(F)(F)F)cc4)cc23)ccc1OCC(=O)O [Example 94, 2-Ethyl-4-[2-(4-trifluoromethylphenyl)-1H-indol-4-ylmethylsulfanyl]phenoxyacetic Acid]
33 | 104 to 107 °C | Cc1cc(SC(C)(C)c2cccc3nc(-c4ccc(C(F)(F)F)cc4)oc23)ccc1CCC(=O)O [Example 76, 3-(2-Methyl-4-{1-methyl-1-[2-(4-trifluoromethylphenyl)benzooxazol-7-yl]ethylsulfanyl}phenyl)propionic Acid]
34 | 213 to 215 °C | O=C(O)Cc1cccc(SCc2ccnc3[nH]c(-c4ccc(C(F)(F)F)cc4)nc23)c1 [Example 107]
